This note sets out measurements from PMC12575728, “Galactose-modified small molecule modulator targets RORα to enhance circadian rhythm and alleviate periodontitis-associated alveolar bone loss” (Bone Research, 2025).

Values after ≈ are worked out from the molar mass of the structure shown.

The nature of data set [1]: Kinetic solubility test. Type of data set: physicochemical. The conditions noted are these: water, 25 °C, kinetic from dmso stock. An excerpt:
Solubility(μmol/L)=Areafiltered×DFfiltered/Areastd×DFstd×[std]×DFstd

The target of data set [2] is T1, RORα (Homo sapiens, UniProt P35398).
T1 construct: HEK293T cells co-transfected with a full-length RORα gene and a luciferase reporter gene; expressed in transfected cells; host or cells: HEK293T
T1 sequence (P35398 1-523): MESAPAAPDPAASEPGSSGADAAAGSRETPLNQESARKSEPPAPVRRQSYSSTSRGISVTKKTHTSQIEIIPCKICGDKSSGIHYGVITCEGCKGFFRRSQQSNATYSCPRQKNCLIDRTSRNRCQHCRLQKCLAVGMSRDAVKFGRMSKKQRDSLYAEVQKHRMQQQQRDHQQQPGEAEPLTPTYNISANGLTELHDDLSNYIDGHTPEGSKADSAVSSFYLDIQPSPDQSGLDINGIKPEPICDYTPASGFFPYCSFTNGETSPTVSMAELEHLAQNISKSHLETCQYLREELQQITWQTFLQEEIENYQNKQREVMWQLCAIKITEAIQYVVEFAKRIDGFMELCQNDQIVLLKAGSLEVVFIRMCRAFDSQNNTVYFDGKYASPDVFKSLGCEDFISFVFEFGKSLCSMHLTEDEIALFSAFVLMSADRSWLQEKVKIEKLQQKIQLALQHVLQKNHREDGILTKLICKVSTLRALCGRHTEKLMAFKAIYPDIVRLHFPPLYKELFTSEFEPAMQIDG
The experiment in a line: Luciferase reporter assay (G6Pase or FGF21 promoter) in HEK293T cells cotransfected with RORα. The conditions noted are these: Fig. S34. Format: cell-based. As for the experimental part: HEK293T cells were transfected with Lipofectamine 8000 (ThermoFisher) strictly following the manufacturer’s instructions. Cotransfected HEK293T cells with RORα or RORγ plasmid and a reporter consisting of the G6Pase or FGF21 promoters upstream of a luciferase reporter gene. 500 ng plasmid DNA was transfected into each well of 24 well-plate 24 h after the transfection, DMSO or Gala-SR and SR1078 (5 µmol/L) was added and incubated for 24 h. The Lumicycle instrument detects luminescence and records the numerical value.

The subject of data set [3] is Per2-dLuc and Bmal1-dLuc U2OS cells. The experiment in a line: Real-time bioluminescence monitoring of Per2-dLuc and Bmal1-dLuc U2OS cells. Format: cell-based, human. The conditions noted are these: U2OS reporter cells, 5 μmol/L, vs DMSO. On the procedure: Two clonal circadian reporter cell lines, Bmal1-dLuc and Per2-dLuc, were established and used in this study.[36] These two cell lines display robust cellular rhythmicity with near anti-phasic oscillation of bioluminescence expression. The lentivirus preparation, transduction of U2OS cells and selection of the knockout candidates with puromycin (at […] concentration) were performed using a previously published protoco.[37] LumiCycle (Actimetrics, Inc., Evanston, IL) detect for U2OS cells stably expressing Bmal1-dLuc and Per2-dLuc cells were seeded on an opaque 24-well plate. When the cells are full, which were treated with dexamethasone (DEX) (100 nmol/L final) for 2 h for resetting, 2 h later, the media of cells were replaced with bioluminescence recording media having DMEM culture medium (Gibco 21063029, 500 mL), 70 mL 12% FBS. Luciferin (0.1 mmol/L final) was added fresh to the bioluminescence media. Molecules at determined concentrations were supplied to the recording media (final DMSO concentration is 0.1%).

In data set [1], `O=C(Nc1ccc(C(OCO[C@@H]2O[C@H](CO)[C@@H](O[C@H]3O[C@H](CO)[C@@H](O)[C@H](O)[C@H]3O)[C@H](O)[C@H]2O)(C(F)(F)F)C(F)(F)F)cc1)c1ccc(C(F)(F)F)cc1` [Malt-SR] gave a kinetic solubility at 2 h of 286 µM (≈ 225 µg/mL).

As for `Cc1ccc(C(=O)Nc2ccc(C(O)(C(F)(F)F)C(F)(F)F)cc2)cc1` [compound 9, reference compound], the RORα transcriptional activity result in data set [2] is listed as “successful inhibition”. Further, in data set [3], the circadian rhythm amplitudes entry is recorded as “downregulate the amplitudes” and the “period or phase of the circadian rhythm” value was “without disrupting the fundamental period or phase”.

Consider `O=C(Nc1ccc(C(OCO[C@H]2O[C@H](CO)[C@@H](O)[C@H](O)[C@@H]2O)(C(F)(F)F)C(F)(F)F)cc1)c1ccc(C(F)(F)F)cc1` [Mann-SR], for which the kinetic solubility at 2 h in data set [1] stood at 198 µM (≈ 124 µg/mL).
